Data reported in patent US20130072404A1, “APPARATUS AND PROCESSES FOR GENERATING VARIABLE CONCENTRATION OF SOLUTES IN MICRODROPLETS” (UNIVERSITE DE STRASBOURG, priority 2009, published 2013).
Read-outs that look alike come from different tables or passages of the source.

Experiments:
Parameters in all cases: purchased Sigma-Aldrich Co
β-galactosidase [1] = target: T1, β-galactosidase (Escherichia coli, UniProt P00722); details: Angenendt et al., 2004; read-out: IC50 literature value; cited from earlier work
β-galactosidase [2] = target: T1, β-galactosidase; test: Droplet microfluidic IC50 measurement, Taylor dispersion dilution (Example 1c), RBG substrate; assay type: biochemical; details: Taylor dispersion pulse, 30 s droplet incubation, 4-parameter log-logistic fit; read-out: IC50 of PETG in the enzyme/substrate/inhibitor system
Excerpt: In the examples, the model systems comprised an enzyme, a substrate, and an inhibitor for IC50 measurements and an enzyme and substrate alone for KM measurements. In all cases the enzyme was β-galactosidase (Sigma-Aldrich Co.), the substrate was resorufin β-D-galactopyranoside (RBG; Invitrogen Corporation), and the inhibitor was phenylethyl β-D-thiogalactopyranoside (PETG; Invitrogen Corporation).
A microfluidic emulsion of 90 pl aqueous microdroplets was generated by injecting the microfluidic device (FIG. 2) with an oil phase and three aqueous phases. The oil phase consisted of 1% (w/w) EA surfactant dissolved in HFE-7500 flowing at 680 μl/hr. […]
The autosampler was used to introduce a single 1 μl pulse of 120 μM PETG (the inhibitor) to the PBS flowing to the device through the silane-treated capillary. The inclusion of 40 μM of the fluorophore sodium fluorescein with the inhibitor allowed the concentration of PETG to be inferred downstream from the degree of fluorescence observed in the 500-520 nm channel. […]
The microdroplets in the initial climb in inhibitor concentration (the leading front of the inhibitor pulse) were plotted in an XY graph with initial reaction rate (inferred from resorufin fluorescence after 30 seconds of droplet incubation) against inhibitor concentration (assumed to be proportional to sodium fluorescein fluorescence). […]

β-galactosidase [3] = target: T1, β-galactosidase; test: Microplate dose-response assay, β-galactosidase (Example 2); assay type: biochemical; details: 8-point microplate assay, n=10; read-out: IC50 obtained in microplate
Method: For β-galactosidase, a solution of the inhibitor PETG was diluted to 200 μM in PBS and then further diluted in 3-fold serial dilution steps seven times (200 μM down to […]). 10 μl aliquots of each dilution were pipetted into the wells of a black, opaque 384-well plate (Corning, Inc., New York, USA). A stock of the substrate FDG was diluted to 240 μM in PBS and 10 μl aliquots were added to the wells. The reactions were initiated by adding 20 μl of 10 U/ml β-galactosidase, in PBS containing 2 g/l BSA, to each well. A SpectraMax M5 microplate reader (Molecular Devices, Inc., California, USA) was used to monitor the reactions at 25° C. with an excitation wavelength of 490 nm, an emission wavelength of 514 nm (automatic cut-off), and a 15 second period between measurements. The initial rate of each reaction was determined and the percentage inhibition of β-galactosidase activity was calculated by scaling this initial rate between a blank (no enzyme, equivalent to 100% inhibition) and a positive control (no inhibitor, equivalent to 0% inhibition) in the same manner as Eq. 1 (see above). When required, the 4-parameter Hill function was fitted to a plot of percentage inhibition against logged inhibitor concentration to determine the IC50 of PETG.

T1 sequence (P00722 2-1024 limits assumed): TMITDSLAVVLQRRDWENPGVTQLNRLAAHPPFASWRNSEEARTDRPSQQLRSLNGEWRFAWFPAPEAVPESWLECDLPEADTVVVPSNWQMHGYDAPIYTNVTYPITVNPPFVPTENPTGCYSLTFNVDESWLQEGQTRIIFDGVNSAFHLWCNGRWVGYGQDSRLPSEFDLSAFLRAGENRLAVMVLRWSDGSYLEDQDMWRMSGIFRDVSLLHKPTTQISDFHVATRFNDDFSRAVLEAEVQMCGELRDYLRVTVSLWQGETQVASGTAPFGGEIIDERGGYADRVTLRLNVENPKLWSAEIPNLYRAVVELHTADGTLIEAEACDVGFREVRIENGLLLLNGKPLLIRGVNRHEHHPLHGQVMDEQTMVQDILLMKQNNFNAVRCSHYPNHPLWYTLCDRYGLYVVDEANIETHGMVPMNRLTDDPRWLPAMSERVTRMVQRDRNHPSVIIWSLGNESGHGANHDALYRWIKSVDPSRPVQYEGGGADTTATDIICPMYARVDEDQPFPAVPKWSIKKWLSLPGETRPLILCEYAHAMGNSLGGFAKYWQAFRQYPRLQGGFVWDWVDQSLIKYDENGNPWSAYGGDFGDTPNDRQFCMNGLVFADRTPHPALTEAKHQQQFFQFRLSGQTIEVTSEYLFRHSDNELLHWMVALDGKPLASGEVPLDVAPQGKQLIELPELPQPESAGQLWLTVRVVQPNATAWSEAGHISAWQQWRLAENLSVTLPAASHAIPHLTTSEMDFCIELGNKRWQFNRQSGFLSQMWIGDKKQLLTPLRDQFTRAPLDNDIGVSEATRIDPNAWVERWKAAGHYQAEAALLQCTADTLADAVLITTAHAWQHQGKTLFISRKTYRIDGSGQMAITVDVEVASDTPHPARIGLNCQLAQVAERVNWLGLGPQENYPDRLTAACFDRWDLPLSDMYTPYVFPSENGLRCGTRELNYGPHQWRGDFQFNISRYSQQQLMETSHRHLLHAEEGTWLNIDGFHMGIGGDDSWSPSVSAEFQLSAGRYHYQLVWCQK

OC[C@H]1O[C@@H](SCCc2ccccc2)[C@H](O)[C@@H](O)[C@H]1O [PETG, phenylethyl β-D-thiogalactopyranoside]
IC50 (β-galactosidase [1]): 3.1 µM | IC50 (β-galactosidase [2]): 3.04 µM | IC50 (β-galactosidase [3]): 2.72 µM
